Target: Human immunodeficiency virus type 1 protease (Human immunodeficiency virus 1, UniProt Q72874)
Assay: Compound was tested for inhibitory activity against Human immunodeficiency virus (HIV-1) protease

Row | Compound | IC50 [nM]
1 | CC(C)(C)OC(=O)N[C@@H](Cc1ccccc1)[C@@H](O)C[C@]1(Cc2ccccc2)CCN([C@@H]2CS(=O)(=O)Cc3ccccc32)C1=O | 17
2 | O=C(N[C@@H](Cc1ccccc1)[C@@H](O)C[C@@H](Cc1ccccc1)C(=O)N[C@H]1c2ccccc2C[C@H]1O)O[C@H]1CCOC1 | 0.06
3 | C[C@@H]1CC[C@@H](O)[C@H]1N1CC[C@@](Cc2ccccc2)(C[C@H](O)[C@H](Cc2ccccc2)NC(=O)OC(C)(C)C)C1=O | 14
4 | CC(C)(C)OC(=O)N[C@@H](Cc1ccccc1)[C@@H](O)CC1(Cc2ccccc2)CCN([C@H]2c3ccccc3C[C@H]2O)C1=O (single isomer, unassigned) | 37
5 | O=C(N[C@@H](Cc1ccccc1)[C@@H](O)C[C@]1(Cc2ccccc2)CCN([C@@H]2CS(=O)(=O)Cc3ccccc32)C1=O)O[C@H]1CCOC1 | 1.8
6 | CC(C)[C@@H](CO)N1CC[C@@](Cc2ccccc2)(C[C@H](O)[C@H](Cc2ccccc2)NC(=O)OC(C)(C)C)C1=O | 35
7 | CC(C)(C)OC(=O)N[C@@H](Cc1ccccc1)[C@@H](O)C[C@]1(Cc2ccccc2)CCN([C@@H]2CSCc3ccccc32)C1=O | 111

From ChEMBL document CHEMBL1127242, “Conformationally constrained HIV-1 protease inhibitors” (Bioorg Med Chem Lett, 1994)
